Experimental data published in PubChem BioAssay AID1918955 (Molecular Pharmacology Branch, DTP, NCI, 2023).

Test system: NCI/ADR-RES complex spheroid viability
Assay: Anticancer human tumor NCI/ADR-RES cell line growth inhibition;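 also: spheroids exposed to compounds for 7 days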;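 as to viability, T/C: 100% = DMSO vehicle treated spheroids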
Conditions: for IC50: curve of first compound; for viability, T/C: stronger effect = lower value
Procedure, shortened: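 Multicellular complex spheroids of tumor cells with human endothelial cells (HUVEC) and mesenchymal stem cells; the LSD1 inhibitor iadademstat was combined with standard-of-care or investigational agents. Top concentration at or near clinical Cmax, half-log dilutions; final DMSO ≤0.25%.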

[1] = second compound 0.1 µM, first compound 0.000316 µM
[2] = second compound 0.1 µM, first compound 0.001 µM
[3] = second compound 0.1 µM, first compound 0.00316 µM
[4] = second compound 0.1 µM, first compound 0.01 µM
[5] = second compound 0.1 µM, first compound 0.0316 µM
[6] = second compound 0.1 µM, first compound 0.1 µM
[7] = second compound 0.316 µM, first compound 0.000316 µM
[8] = second compound 0.316 µM, first compound 0.001 µM
[9] = second compound 0.316 µM, first compound 0.00316 µM
[10] = second compound 0.316 µM, first compound 0.01 µM
[11] = second compound 0.316 µM, first compound 0.0316 µM
[12] = second compound 0.316 µM, first compound 0.1 µM
[13] = second compound 1 µM, first compound 0.000316 µM
[14] = second compound 1 µM, first compound 0.001 µM
[15] = second compound 1 µM, first compound 0.00316 µM
[16] = second compound 1 µM, first compound 0.01 µM
[17] = second compound 1 µM, first compound 0.0316 µM
[18] = second compound 1 µM, first compound 0.1 µM
[19] = second compound 3.16 µM, first compound 0.000316 µM
[20] = second compound 3.16 µM, first compound 0.001 µM
[21] = second compound 3.16 µM, first compound 0.00316 µM
[22] = second compound 3.16 µM, first compound 0.01 µM
[23] = second compound 3.16 µM, first compound 0.0316 µM
[24] = second compound 3.16 µM, first compound 0.1 µM
[25] = second compound 10 µM, first compound 0.000316 µM
[26] = second compound 10 µM, first compound 0.001 µM
[27] = second compound 10 µM, first compound 0.00316 µM
[28] = second compound 10 µM, first compound 0.01 µM
[29] = second compound 10 µM, first compound 0.0316 µM
[30] = second compound 10 µM, first compound 0.1 µM
[31] = second compound 0.1 µM, first compound 0.00949 µM
[32] = second compound 0.1 µM, first compound 0.03 µM
[33] = second compound 0.1 µM, first compound 0.0949 µM
[34] = second compound 0.1 µM, first compound 0.3 µM
[35] = second compound 0.1 µM, first compound 0.949 µM
[36] = second compound 0.1 µM, first compound 3 µM
[37] = second compound 0.316 µM, first compound 0.00949 µM
[38] = second compound 0.316 µM, first compound 0.03 µM
[39] = second compound 0.316 µM, first compound 0.0949 µM
[40] = second compound 0.316 µM, first compound 0.3 µM
[41] = second compound 0.316 µM, first compound 0.949 µM
[42] = second compound 0.316 µM, first compound 3 µM
[43] = second compound 1 µM, first compound 0.00949 µM
[44] = second compound 1 µM, first compound 0.03 µM
[45] = second compound 1 µM, first compound 0.0949 µM
[46] = second compound 1 µM, first compound 0.3 µM
[47] = second compound 1 µM, first compound 0.949 µM
[48] = second compound 1 µM, first compound 3 µM
[49] = second compound 3.16 µM, first compound 0.00949 µM
[50] = second compound 3.16 µM, first compound 0.03 µM
[51] = second compound 3.16 µM, first compound 0.0949 µM
[52] = second compound 3.16 µM, first compound 0.3 µM
[53] = second compound 3.16 µM, first compound 0.949 µM
[54] = second compound 3.16 µM, first compound 3 µM
[55] = second compound 10 µM, first compound 0.00949 µM
[56] = second compound 10 µM, first compound 0.03 µM
[57] = second compound 10 µM, first compound 0.0949 µM
[58] = second compound 10 µM, first compound 0.3 µM
[59] = second compound 10 µM, first compound 0.949 µM
[60] = second compound 10 µM, first compound 3 µM

CC(C)CC(NC(=O)CNC(=O)c1cc(Cl)ccc1Cl)B1OC(=O)CC(CC(=O)O)(C(=O)O)O1 (stereo not given) + NC1CCC(NC2CC2c2ccccc2)CC1 was tested, and the IC50 (second compound 0.1 µM) was 28.8 nM, the IC50 (second compound 0.316 µM) was 28.8 nM and the IC50 (second compound 1 µM) was 27.4 nM. It also gave an IC50 (second compound 3.16 µM) of 20.7 nM, an IC50 (second compound 10 µM) of 14.2 nM and a viability, T/C [1] of 104%. For the same compound, the viability, T/C [2] was 106%, the viability, T/C [3] was 107% and the viability, T/C [4] was 90.4%. The viability, T/C [5] was 46.6%, the viability, T/C [6] was 8.2% and the viability, T/C [7] was 105%. For the same compound, the viability, T/C [8] was 109%, the viability, T/C [9] was 103% and the viability, T/C [10] was 92%. The viability, T/C [11] was 46.2%, the viability, T/C [12] was 4.8% and the viability, T/C [13] was 100%. For the same compound, the viability, T/C [14] was 102%, the viability, T/C [15] was 102% and the viability, T/C [16] was 91.1%. For the same compound, the viability, T/C [17] was 44.2%, the viability, T/C [18] was 2.51% and the viability, T/C [19] was 92.3%. It also gave a viability, T/C [20] of 98.3%, a viability, T/C [21] of 104% and a viability, T/C [22] of 83.5%. The viability, T/C [23] was 30.1%, the viability, T/C [24] was 3.89% and the viability, T/C [25] was 91.4%. The viability, T/C [26] was 89.2%, the viability, T/C [27] was 87.8% and the viability, T/C [28] was 62.1%. For the same compound, the viability, T/C [29] was 21% and the viability, T/C [30] was 4.15%.
With COc1cc(Nc2ncc3c(n2)-c2ccc(Cl)cc2C(c2c(F)cccc2OC)=NC3)ccc1C(=O)O + NC1CCC(NC2CC2c2ccccc2)CC1 the IC50 (second compound 0.1 µM) was 20.8 nM, the IC50 (second compound 0.316 µM) was 21.2 nM and the IC50 (second compound 1 µM) was 17.5 nM. It also gave an IC50 (second compound 3.16 µM) of 16.6 nM, an IC50 (second compound 10 µM) of 16.1 nM and a viability, T/C [3] of 92%. For the same compound, the viability, T/C [4] was 71%, the viability, T/C [5] was 38% and the viability, T/C [6] was 23.2%. For the same compound, the viability, T/C (second compound 0.1 µM, first compound 0.316 µM) was 18.2%, the viability, T/C (second compound 0.1 µM, first compound 1 µM) was 20.5% and the viability, T/C [9] was 92%. The viability, T/C [10] was 75%, the viability, T/C [11] was 37.1% and the viability, T/C [12] was 18.1%. For the same compound, the viability, T/C (second compound 0.316 µM, first compound 0.316 µM) was 20%, the viability, T/C (second compound 0.316 µM, first compound 1 µM) was 17.4% and the viability, T/C [15] was 90.4%. It also gave a viability, T/C [16] of 61%, a viability, T/C [17] of 40.2% and a viability, T/C [18] of 18.6%. For the same compound, the viability, T/C (second compound 1 µM, first compound 0.316 µM) was 16.6%, the viability, T/C (second compound 1 µM, first compound 1 µM) was 18.8% and the viability, T/C [21] was 90.6%. The viability, T/C [22] was 63.4%, the viability, T/C [23] was 32.7% and the viability, T/C [24] was 19.1%. For the same compound, the viability, T/C (second compound 3.16 µM, first compound 0.316 µM) was 12.3%, the viability, T/C (second compound 3.16 µM, first compound 1 µM) was 12.7% and the viability, T/C [27] was 82%. The viability, T/C [28] was 63.7%, the viability, T/C [29] was 30.3% and the viability, T/C [30] was 17.5%. For the same compound, the viability, T/C (second compound 10 µM, first compound 0.316 µM) was 9.8% and the viability, T/C (second compound 10 µM, first compound 1 µM) was 8.65%.
In the case of Cn1ncnc1C1c2n[nH]c(=O)c3cc(F)cc(c23)NC1c1ccc(F)cc1 (stereo not given) + NC1CCC(NC2CC2c2ccccc2)CC1, the IC50 (second compound 0.1 µM) is reported as > 100 nM, the IC50 (second compound 0.316 µM) is reported as > 100 nM and the IC50 (second compound 1 µM) is reported as > 100 nM. The IC50 (second compound 3.16 µM) was > 100 nM, the IC50 (second compound 10 µM) was > 100 nM and the viability, T/C [1] was 110%. It also gave a viability, T/C [2] of 108%, a viability, T/C [3] of 110% and a viability, T/C [4] of 103%. It also gave a viability, T/C [5] of 103%, a viability, T/C [6] of 96.6% and a viability, T/C [7] of 109%. It also gave a viability, T/C [8] of 106%, a viability, T/C [9] of 102% and a viability, T/C [10] of 102%. For the same compound, the viability, T/C [11] was 104%, the viability, T/C [12] was 103% and the viability, T/C [13] was 105%. It also gave a viability, T/C [14] of 109%, a viability, T/C [15] of 105% and a viability, T/C [16] of 104%. For the same compound, the viability, T/C [17] was 102%, the viability, T/C [18] was 98% and the viability, T/C [19] was 106%. For the same compound, the viability, T/C [20] was 109%, the viability, T/C [21] was 104% and the viability, T/C [22] was 109%. For the same compound, the viability, T/C [23] was 101%, the viability, T/C [24] was 105% and the viability, T/C [25] was 89.4%. It also gave a viability, T/C [26] of 95.9%, a viability, T/C [27] of 102% and a viability, T/C [28] of 92.9%. For the same compound, the viability, T/C [29] was 89.8% and the viability, T/C [30] was 84.5%.
NS(=O)(=O)OCC1CC(n2ccc3c(NC4CCc5ccccc54)ncnc32)CC1O (stereo not given) + NC1CCC(NC2CC2c2ccccc2)CC1 was tested, and the IC50 (second compound 0.1 µM) was 986 nM, the IC50 (second compound 0.316 µM) was 890 nM and the IC50 (second compound 1 µM) was 740 nM. For the same compound, the IC50 (second compound 3.16 µM) was 660 nM, the IC50 (second compound 10 µM) was 353 nM and the viability, T/C [31] was 99.1%. The viability, T/C [32] was 98.9%, the viability, T/C [33] was 84.9% and the viability, T/C [34] was 73.8%. It also gave a viability, T/C [35] of 52.3%, a viability, T/C [36] of 14.4% and a viability, T/C [37] of 99.2%. For the same compound, the viability, T/C [38] was 92.4%, the viability, T/C [39] was 87.5% and the viability, T/C [40] was 74.7%. For the same compound, the viability, T/C [41] was 47.9%, the viability, T/C [42] was 15.7% and the viability, T/C [43] was 109%. It also gave a viability, T/C [44] of 95.6%, a viability, T/C [45] of 86.5% and a viability, T/C [46] of 70.3%. The viability, T/C [47] was 43.3%, the viability, T/C [48] was 16.8% and the viability, T/C [49] was 93.6%. The viability, T/C [50] was 93%, the viability, T/C [51] was 86.2% and the viability, T/C [52] was 70.8%. It also gave a viability, T/C [53] of 40.4%, a viability, T/C [54] of 20.4% and a viability, T/C [55] of 87.3%. The viability, T/C [56] was 86.8%, the viability, T/C [57] was 73.8% and the viability, T/C [58] was 50.5%. The viability, T/C [59] was 31.3% and the viability, T/C [60] was 7.61%.
For O=C(C=Cc1cccc(S(=O)(=O)Nc2ccccc2)c1)NO + NC1CCC(NC2CC2c2ccccc2)CC1, the IC50 (second compound 0.1 µM) was 82.2 nM, the IC50 (second compound 0.316 µM) was 78.1 nM and the IC50 (second compound 1 µM) was 78.3 nM. For the same compound, the IC50 (second compound 3.16 µM) was 76.7 nM, the IC50 (second compound 10 µM) was 29.8 nM and the viability, T/C [31] was 99.7%. The viability, T/C [32] was 85.7%, the viability, T/C [33] was 39.4% and the viability, T/C [34] was 24.7%. For the same compound, the viability, T/C [35] was 9.06%, the viability, T/C [36] was 2.6% and the viability, T/C [37] was 97.1%. For the same compound, the viability, T/C [38] was 85.2%, the viability, T/C [39] was 40.7% and the viability, T/C [40] was 17.5%. The viability, T/C [41] was 7.56%, the viability, T/C [42] was 2.59% and the viability, T/C [43] was 104%. For the same compound, the viability, T/C [44] was 82%, the viability, T/C [45] was 41.5% and the viability, T/C [46] was 19.4%. For the same compound, the viability, T/C [47] was 10.1%, the viability, T/C [48] was 1.53% and the viability, T/C [49] was 95.6%. For the same compound, the viability, T/C [50] was 78.7%, the viability, T/C [51] was 42.9% and the viability, T/C [52] was 17.8%. It also gave a viability, T/C [53] of 8.22%, a viability, T/C [54] of 5.29% and a viability, T/C [55] of 75.2%. It also gave a viability, T/C [56] of 47.6%, a viability, T/C [57] of 34.4% and a viability, T/C [58] of 16.6%. It also gave a viability, T/C [59] of 6.54% and a viability, T/C [60] of 6.09%.
